Measured values published in US20230278972A1, “SUBSTITUTED HALOALKYL SULFONANILIDE HERBICIDES” (FMC Corporation, priority 2020, published 2023).

Tests used:
Format in all cases: in vivo
[1] = system: Oat, Wild (wild oat, Avena fatua); test: Test A1 preemergence, Oat, Wild; details: 125 g ai/ha, 0 to 100 scale (0 no effect, 100 complete control)
How it was run: (§1)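 Herbicidal response was scored on plants treated either preemergence, by directed spray onto soil of a loam–sand blend after sowing, or postemergence on potted plants at the one- to two-leaf stage, 2–10 cm high. Test chemicals were carried in a non-phytotoxic solvent mix with surfactant.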

[2] = system: Pigweed, Palmer (palmer amaranth, palmer pigweed, Amaranthus palmeri); test: Test A1 preemergence, Pigweed, Palmer; details: 125 g ai/ha, 0 to 100 scale (0 no effect, 100 complete control)
How it was run: as §1

[3] = system: horseweed (Erigeron canadensis); test: Test A1 postemergence, horseweed; details: 0 to 100 scale (0 no effect, 100 complete control)
How it was run: (§2)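 Test compounds were formulated in a non-phytotoxic solvent mixture containing a surfactant. For preemergence, seeds sown in a loam soil–sand blend received a directed soil spray. For postemergence, potted plants in the same soil, 2 to 10 cm tall at the one- to two-leaf stage, were sprayed.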

[4] = system: corn (Zea mays); test: Test A1 postemergence, corn; details: 0 to 100 scale (0 no effect, 100 complete control)
How it was run: as §1

[5] = system: Foxtail, Giant (giant foxtail, Setaria faberi); test: Test A1 postemergence, Foxtail, Giant; details: 0 to 100 scale (0 no effect, 100 complete control)
How it was run: as §2

[6] = system: blackgrass (Alopecurus myosuroides); test: Test A1 postemergence, blackgrass; details: 0 to 100 scale (0 no effect, 100 complete control)
How it was run: as §2

[7] = system: soybean (Glycine max); test: Test A1 postemergence, soybean; details: 0 to 100 scale (0 no effect, 100 complete control)
How it was run: as §2

[8] = system: goosegrass (Eleusine indica); test: Test A1 preemergence, goosegrass; details: 0 to 100 scale (0 no effect, 100 complete control)
How it was run: as §1

[9] = system: Pigweed, Palmer (palmer amaranth, palmer pigweed, Amaranthus palmeri); test: Test A1 postemergence, Pigweed, Palmer; details: 0 to 100 scale (0 no effect, 100 complete control)
How it was run: (§3)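 Postemergence species (ragweed, Palmer pigweed, wild oat) were sprayed at one- to two-leaf stage, 2 to 10 cm tall. Corn was treated preemergence by directed soil spray. Both used a loam soil/sand blend and compounds in a non-phytotoxic solvent mixture with surfactant.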

[10] = system: Foxtail, Giant (giant foxtail, Setaria faberi); test: Test A1 preemergence, Foxtail, Giant; details: 0 to 100 scale (0 no effect, 100 complete control)
How it was run: as §1

[11] = system: corn (Zea mays); test: Test A1 preemergence, corn
How it was run: as §3

[12] = system: kochia (Bassia scoparia); test: Test A1 postemergence, kochia; details: 0 to 100 scale (0 no effect, 100 complete control)
How it was run: as §2

[13] = system: kochia (Bassia scoparia); test: Test A1 preemergence, kochia; details: 0 to 100 scale (0 no effect, 100 complete control)
How it was run: as §1

[14] = system: Ryegrass, Italian (Italian ryegrass, Lolium multiflorum); test: Test A1 postemergence, Ryegrass, Italian; details: 0 to 100 scale (0 no effect, 100 complete control)
How it was run: as §2

[15] = system: soybean (Glycine max); test: Test A1 preemergence, soybean; details: 125 g ai/ha, 0 to 100 scale (0 no effect, 100 complete control)
How it was run: as §1

[16] = system: Oat, Wild (wild oat, Avena fatua); test: Test A1 postemergence, Oat, Wild; details: 0 to 100 scale (0 no effect, 100 complete control)
How it was run: as §3

[17] = system: barnyardgrass (Echinochloa crus-galli); test: Test B1 flooded paddy test, barnyardgrass; details: 250 g ai/ha, Flood, applied to paddy water, 2-leaf stage, visually evaluated after 10 to 14 days
Text: (§4) A dash (-) response means no test result.

[18] = system: galium (catchweed bedstraw, Galium aparine); test: Test A1 postemergence, galium; details: 0 to 100 scale (0 no effect, 100 complete control)
How it was run: as §2

[19] = system: rice (Oryza sativa); test: Test B1 flooded paddy test, rice; details: 250 g ai/ha, Flood, applied to paddy water, 2-leaf stage, visually evaluated after 10 to 14 days
Text: as §4

[20] = system: wheat (Triticum aestivum); test: Test A1 postemergence, wheat; details: 0 to 100 scale (0 no effect, 100 complete control)
How it was run: as §2

[21] = system: ragweed (common ragweed, Ambrosia artemisiifolia); test: Test A1 preemergence, ragweed; details: 125 g ai/ha, 0 to 100 scale (0 no effect, 100 complete control)
How it was run: as §1

[22] = system: ragweed (common ragweed, Ambrosia artemisiifolia); test: Test A1 postemergence, ragweed; details: 0 to 100 scale (0 no effect, 100 complete control)
How it was run: as §3

[23] = system: ducksalad (Heteranthera limosa); test: Test B1 flooded paddy test, ducksalad; details: 250 g ai/ha, Flood, applied to paddy water, 2-leaf stage, visually evaluated after 10 to 14 days
Text: as §4

[24] = system: Ryegrass, Italian (Italian ryegrass, Lolium multiflorum); test: Test A1 preemergence, Ryegrass, Italian; details: 125 g ai/ha, 0 to 100 scale (0 no effect, 100 complete control)
How it was run: as §1

[25] = system: blackgrass (Alopecurus myosuroides); test: Test A1 preemergence, blackgrass
How it was run: as §1

[26] = system: goosegrass (Eleusine indica); test: Test A1 postemergence, goosegrass; details: 0 to 100 scale (0 no effect, 100 complete control)
How it was run: as §2

[27] = system: wheat (Triticum aestivum); test: Test A1 preemergence, wheat; details: 125 g ai/ha, 0 to 100 scale (0 no effect, 100 complete control)
How it was run: as §1

[28] = Postemergence, 125 g ai/ha, 10 days
[29] = 31 g ai/ha, 0 to 100 scale (0 no effect, 100 complete control)
[30] = 125 g ai/ha, 0 to 100 scale, 0 no effect, 100 complete control

Structure (SMILES): COc1cccc2c1C(=O)N(c1cc(N(COC(=O)C(C)(C)C)S(=O)(=O)Cl)c(C)cc1C)C2 [Compound 413]
- Plant response rating, Oat, Wild [1]: 0
- Plant response rating, Pigweed, Palmer [2]: 90
- Horseweed plant response rating ([3]; 31 g ai/ha, postemergence): 40
- Plant response rating, Horseweed [3, 28]: 90
- Corn plant response rating ([4]; 31 g ai/ha, postemergence): 30
- Plant response rating, Corn [4, 28]: 30
- Foxtail, Giant plant response rating ([5]; 31 g ai/ha, postemergence): 0
- Plant response rating, Foxtail, Giant [5, 28]: 10
- Blackgrass plant response rating ([6]; 31 g ai/ha, postemergence): 0
- Plant response rating, Blackgrass [6, 28]: 0
- Soybean plant response rating ([7]; 31 g ai/ha, postemergence): 80
- Plant response rating, Soybean [7, 28]: 80
- Plant response rating, Goosegrass ([8]; 31 g ai/ha): 50
- Plant response rating, Goosegrass ([8]; 125 g ai/ha): 80
- Pigweed, Palmer plant response rating ([9]; 31 g ai/ha, postemergence): 20
- Plant response rating, Pigweed, Palmer [9, 28]: 30
- Plant response rating, Foxtail, Giant ([10]; 31 g ai/ha): 0
- Plant response rating, Foxtail, Giant ([10]; 125 g ai/ha): 10
- Plant response rating, Corn [11, 29]: 0
- Plant response rating, Corn [11, 30]: 10
- Kochia plant response rating ([12]; 31 g ai/ha, postemergence): 20
- Plant response rating, Kochia [12, 28]: 80
- Plant response rating, Kochia ([13]; 31 g ai/ha): 70
- Plant response rating, Kochia ([13]; 125 g ai/ha): 90
- Ryegrass, Italian plant response rating ([14]; 31 g ai/ha, postemergence): 0
- Plant response rating, Ryegrass, Italian [14, 28]: 0
- Plant response rating, Soybean [15]: 50
- Oat, Wild plant response rating ([16]; 31 g ai/ha, postemergence): 0
- Plant response rating, Oat, Wild [16, 28]: 0
- Plant response rating, Barnyardgrass (0 to 100 scale, 0 is no effect, 100 is complete control) [17]: 40
- Galium plant response rating ([18]; 31 g ai/ha, postemergence): 50
- Plant response rating, Galium [18, 28]: 100
- Plant response rating, Rice (0 to 100 scale, 0 is no effect, 100 is complete control) [19]: 0
- Wheat plant response rating ([20]; 31 g ai/ha, postemergence): 0
- Plant response rating, Wheat [20, 28]: 0
- Plant response rating, Ragweed [21]: 90
- Ragweed plant response rating ([22]; 31 g ai/ha, postemergence): 60
- Plant response rating, Ragweed [22, 28]: 90
- Plant response rating, Ducksalad (0 to 100 scale, 0 is no effect, 100 is complete control) [23]: 80
- Plant response rating, Ryegrass, Italian [24]: 20
- Plant response rating, Blackgrass [25, 29]: 20
- Plant response rating, Blackgrass [25, 30]: 20
- Goosegrass plant response rating ([26]; 31 g ai/ha, postemergence): 0
- Plant response rating, Goosegrass [26, 28]: 0
- Plant response rating, Wheat [27]: 0
